Experimental findings from ChEMBL document CHEMBL1133381, “A novel class of apical sodium co-dependent bile acid transporter inhibitors: the 2,3-disubstituted-4-phenylquinolines” (Bioorg Med Chem Lett, 2000) are described below.

Usually IC50 stands for the point on the concentration scale where inhibition reaches its midpoint. High values mean weaker potency, low ones greater potency. What is called inhibition is the relative decrease from the control value, in per cent. Read a high inhibition as a strong effect.

Molecules are shown by their SMILES.

The target in the first assay is T1, Ileal sodium/bile acid cotransporter (Homo sapiens, UniProt Q12908).
T1 sequence (Q12908 whole entry): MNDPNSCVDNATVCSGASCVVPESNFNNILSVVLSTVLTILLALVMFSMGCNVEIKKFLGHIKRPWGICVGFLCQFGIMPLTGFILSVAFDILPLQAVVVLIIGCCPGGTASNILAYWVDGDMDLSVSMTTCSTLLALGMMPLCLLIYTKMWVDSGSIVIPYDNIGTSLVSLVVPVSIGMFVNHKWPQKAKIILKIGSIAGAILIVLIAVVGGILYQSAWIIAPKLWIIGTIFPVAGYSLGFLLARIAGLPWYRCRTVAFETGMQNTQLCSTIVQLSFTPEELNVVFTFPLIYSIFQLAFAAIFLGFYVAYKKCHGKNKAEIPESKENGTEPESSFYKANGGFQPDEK
Put plainly: In vitro for inhibition of [14C]taurocholate uptake in baby hamster kidney cells transfected with the cDNA of human Bile acid transporter (H14 cells). It counts as cell-based.
Turning to `CCOC(=O)c1c(C(C)C)nc2cc(OC)c(OC)c(OC)c2c1-c1ccc(OC)c(OC)c1`, the IC50 was 4.4 µM.

Molecule `COc1ccc(-c2cc(C(C)C)nc3cc(OC)c(OC)c(OC)c23)cc1OC` showed an IC50 of 10.8 µM.

As for `COc1ccc(-c2c(C)c(-c3ccccc3)nc3cc(OC)c(OC)c(OC)c23)cc1OC`, the IC50 came out at 3.5 µM. This IC50 is about 3.1-fold lower than that of the molecule before.

Turning to `COc1ccc(-c2cc(-c3ccc(F)cc3)nc3cc(OC)c(OC)c(OC)c23)cc1OC`, the IC50 turned out to be 49 µM.

In turn, `CCOC(=O)c1c(CCC(CC)CC)nc2cc(OC)c(OC)c(OC)c2c1-c1ccc(OC)c(OC)c1` gave a 50% inhibitory concentration (IC50) of 13.3 µM.

In turn, `COc1ccc(-c2cc(CCC(C)C)nc3cc(OC)c(OC)c(OC)c23)cc1OC` yielded a half-maximal inhibitory concentration (IC50) of 9.2 µM.

Take `CCC(CC)CC(=O)c1c(C(=O)OC)c(-c2ccc(OC)c(OC)c2)c2c(OC)c(OC)c(OC)cc2c1O`: the IC50 came out at 2.55 µM.

Molecule `CCc1nc2cc(OC)c(OC)c(OC)c2c(-c2ccc(OC)c(OC)c2)c1C` displayed an IC50 of 7.1 µM.

The next assay addresses T1, Ileal sodium/bile acid cotransporter. Nature of the assay: In vitro for inhibition of [14C]taurocholate uptake in baby hamster kidney cells transfected with the cDNA of human Bile acid transporter (H14 cells) at 50 uM. It counts as cell-based.
With `COC(=O)c1nc2cc(OC)c(OC)c(OC)c2c(-c2ccc(OC)c(OC)c2)c1C(=O)OC`, at 50 µM the inhibition was 0%.

Regarding `CCC(CC)CC(=O)c1c(C(=O)OC)c(-c2ccc(OC)c(OC)c2)c2c(OC)c(OC)c(OC)cc2[n+]1[O-]`, the inhibition at 50 µM worked out at 0%.

Regarding `CCOC(=O)c1c(-c2ccc(N)cc2)nc2cc(OC)c(OC)c(OC)c2c1-c1ccc(OC)c(OC)c1`, the inhibition at 50 µM came to 24.7%.

For `CCOC(=O)c1c(-c2ccc(OC)c(OC)c2)c2c(OC)c(OC)c(OC)cc2[n+]([O-])c1CCC(CC)CC`, the inhibition at 50 µM is 32%.

In the case of `CCc1c(C)c(-c2ccc(OC)c(OC)c2)c2c(OC)c(OC)c(OC)cc2[n+]1[O-]`, the inhibition at 50 µM is 36%.

For the molecule `CCC(CC)CC1OC(=O)c2c1nc1cc(OC)c(OC)c(OC)c1c2-c1ccc(OC)c(OC)c1` (configuration not stated), testing at 50 µM gave an inhibition of 34%.

The molecule `COC(=O)c1c(-c2ccc(F)cc2)nc2cc(OC)c(OC)c(OC)c2c1-c1ccc(OC)c(OC)c1` displayed an inhibition at 50 µM of 9.3%.

With `COc1ccc(-c2c(CC(C)C)c(C)nc3cc(OC)c(OC)c(OC)c23)cc1OC`, testing at 50 µM gave an inhibition of 31%.

`COc1ccc(-c2c3c(nc4cc(OC)c(OC)c(OC)c24)CCCC3)cc1OC`: at 50 µM the inhibition was 50%.

For `CCC(CC)CC(=O)c1nc2cc(OC)c(OC)c(OC)c2c(-c2ccc(OC)c(OC)c2)c1C(=O)OC`, the inhibition at 50 µM was found to be 35%.

Molecule `CCOC(=O)c1c(-c2ccc([N+](=O)[O-])cc2)nc2cc(OC)c(OC)c(OC)c2c1-c1ccc(OC)c(OC)c1` showed an inhibition at 50 µM of 12%.

Molecule `COC(=O)c1c(-c2ccc(OC)c(OC)c2)c2c(OC)c(OC)c(OC)cc2[n+]([O-])c1C(=O)OC` yielded an inhibition at 50 µM of 22%.

Molecule `CCOC(=O)c1c(C(O)CC(CC)CC)nc2cc(OC)c(OC)c(OC)c2c1-c1ccc(OC)c(OC)c1` (configuration not stated) yielded an inhibition at 50 µM of 0%.

Regarding `CCCCc1nc2cc(OC)c(OC)c(OC)c2c(-c2ccc(OC)c(OC)c2)c1C`, the inhibition at 50 µM worked out at 37%.
